Columns and labels:
Assay type in all cases: functional
Klebsiella aerogenes [1] = assay: Antimicrobial activity against multidrug resistant Enterobacter aerogenes isolate 13 by broth dilution method in presence of 26.3 mg/L efflux pump inhibitor phenylalanine-arginine-beta-naphthylamide
Klebsiella aerogenes [2] = assay: Antimicrobial activity against multidrug resistant Enterobacter aerogenes isolate 24 by broth dilution method in presence of 26.3 mg/L efflux pump inhibitor phenylalanine-arginine-beta-naphthylamide
Klebsiella aerogenes [3] = assay: Antimicrobial activity against multidrug resistant Enterobacter aerogenes isolate 26 by broth dilution method in presence of 26.3 mg/L efflux pump inhibitor phenylalanine-arginine-beta-naphthylamide
Klebsiella aerogenes [4] = assay: Antimicrobial activity against multidrug resistant Enterobacter aerogenes isolate 16 by broth dilution method in presence of 26.3 mg/L efflux pump inhibitor phenylalanine-arginine-beta-naphthylamide
Klebsiella aerogenes [5] = assay: Antimicrobial activity against multidrug resistant Enterobacter aerogenes isolate 23 by broth dilution method
Klebsiella pneumoniae [6] = assay: Antimicrobial activity against multidrug resistant Klebsiella pneumoniae isolate 10 by broth dilution method in presence of 26.3 mg/L efflux pump inhibitor phenylalanine-arginine-beta-naphthylamide
Klebsiella aerogenes [7] = assay: Antimicrobial activity against multidrug resistant Enterobacter aerogenes isolate 7 by broth dilution method in presence of 26.3 mg/L efflux pump inhibitor phenylalanine-arginine-beta-naphthylamide
Klebsiella pneumoniae [8] = assay: Antimicrobial activity against multidrug resistant Klebsiella pneumoniae isolate 6 by broth dilution method in presence of 26.3 mg/L efflux pump inhibitor phenylalanine-arginine-beta-naphthylamide
Klebsiella pneumoniae [9] = assay: Antimicrobial activity against multidrug resistant Klebsiella pneumoniae isolate 9 by broth dilution method
Klebsiella pneumoniae [10] = assay: Antimicrobial activity against multidrug resistant Klebsiella pneumoniae isolate 12 by broth dilution method
Klebsiella aerogenes [11] = assay: Antimicrobial activity against multidrug resistant Enterobacter aerogenes isolate 27 by broth dilution method
Klebsiella aerogenes [12] = assay: Antimicrobial activity against multidrug resistant Enterobacter aerogenes isolate 21 by broth dilution method
Klebsiella aerogenes [13] = assay: Antimicrobial activity against multidrug resistant Enterobacter aerogenes isolate 22 by broth dilution method
Klebsiella aerogenes [14] = assay: Antimicrobial activity against multidrug resistant Enterobacter aerogenes isolate 6 by broth dilution method in presence of 26.3 mg/L efflux pump inhibitor phenylalanine-arginine-beta-naphthylamide
Klebsiella aerogenes [15] = assay: Antimicrobial activity against multidrug resistant Enterobacter aerogenes isolate 4 by broth dilution method
Klebsiella pneumoniae [16] = assay: Antimicrobial activity against multidrug resistant Klebsiella pneumoniae isolate 7 by broth dilution method
Klebsiella aerogenes [17] = assay: Antimicrobial activity against multidrug resistant Enterobacter aerogenes isolate 9 by broth dilution method
Klebsiella aerogenes [18] = assay: Antimicrobial activity against multidrug resistant Enterobacter aerogenes isolate 10 by broth dilution method
Klebsiella aerogenes [19] = assay: Antimicrobial activity against multidrug resistant Enterobacter aerogenes isolate 5 by broth dilution method
Klebsiella aerogenes [20] = assay: Antimicrobial activity against multidrug resistant Enterobacter aerogenes isolate 5 by broth dilution method in presence of 26.3 mg/L efflux pump inhibitor phenylalanine-arginine-beta-naphthylamide
Klebsiella pneumoniae [21] = assay: Antimicrobial activity against multidrug resistant Klebsiella pneumoniae ATCC 11296 by broth dilution method
Klebsiella pneumoniae [22] = assay: Antimicrobial activity against multidrug resistant Klebsiella pneumoniae isolate 6 by broth dilution method
Klebsiella pneumoniae [23] = assay: Antimicrobial activity against multidrug resistant Klebsiella pneumoniae isolate 16 by broth dilution method
Klebsiella aerogenes [24] = assay: Antimicrobial activity against multidrug resistant Enterobacter aerogenes isolate 6 by broth dilution method
Klebsiella aerogenes [25] = assay: Antimicrobial activity against multidrug resistant Enterobacter aerogenes isolate 27 by broth dilution method in presence of 26.3 mg/L efflux pump inhibitor phenylalanine-arginine-beta-naphthylamide
Klebsiella pneumoniae [26] = assay: Antimicrobial activity against multidrug resistant Klebsiella pneumoniae isolate 15 by broth dilution method in presence of 26.3 mg/L efflux pump inhibitor phenylalanine-arginine-beta-naphthylamide
Klebsiella aerogenes [27] = assay: Antimicrobial activity against multidrug resistant Enterobacter aerogenes isolate 20 by broth dilution method in presence of 26.3 mg/L efflux pump inhibitor phenylalanine-arginine-beta-naphthylamide
Klebsiella pneumoniae [28] = assay: Antimicrobial activity against multidrug resistant Klebsiella pneumoniae isolate 13 by broth dilution method in presence of 26.3 mg/L efflux pump inhibitor phenylalanine-arginine-beta-naphthylamide
Klebsiella pneumoniae [29] = assay: Antimicrobial activity against multidrug resistant Klebsiella pneumoniae isolate 4 by broth dilution method in presence of 26.3 mg/L efflux pump inhibitor phenylalanine-arginine-beta-naphthylamide
Klebsiella aerogenes [30] = assay: Antimicrobial activity against multidrug resistant Enterobacter aerogenes isolate 19 by broth dilution method
Klebsiella aerogenes [31] = assay: Antimicrobial activity against multidrug resistant Enterobacter aerogenes isolate 12 by broth dilution method in presence of 26.3 mg/L efflux pump inhibitor phenylalanine-arginine-beta-naphthylamide
Klebsiella pneumoniae [32] = assay: Antimicrobial activity against multidrug resistant Klebsiella pneumoniae isolate 9 by broth dilution method in presence of 26.3 mg/L efflux pump inhibitor phenylalanine-arginine-beta-naphthylamide
Klebsiella aerogenes [33] = assay: Antimicrobial activity against multidrug resistant Enterobacter aerogenes isolate 11 by broth dilution method
Klebsiella pneumoniae [34] = assay: Antimicrobial activity against multidrug resistant Klebsiella pneumoniae isolate 3 by broth dilution method
Klebsiella aerogenes [35] = assay: Antimicrobial activity against multidrug resistant Enterobacter aerogenes isolate 26 by broth dilution method
Klebsiella pneumoniae [36] = assay: Antimicrobial activity against multidrug resistant Klebsiella pneumoniae isolate 15 by broth dilution method
Klebsiella aerogenes [37] = assay: Antimicrobial activity against multidrug resistant Enterobacter aerogenes isolate 8 by broth dilution method
Klebsiella pneumoniae [38] = assay: Antimicrobial activity against multidrug resistant Klebsiella pneumoniae isolate 5 by broth dilution method in presence of 26.3 mg/L efflux pump inhibitor phenylalanine-arginine-beta-naphthylamide
Klebsiella aerogenes [39] = assay: Antimicrobial activity against multidrug resistant Enterobacter aerogenes isolate 18 by broth dilution method
Klebsiella aerogenes [40] = assay: Antimicrobial activity against multidrug resistant Enterobacter aerogenes isolate 19 by broth dilution method in presence of 26.3 mg/L efflux pump inhibitor phenylalanine-arginine-beta-naphthylamide
Klebsiella pneumoniae [41] = assay: Antimicrobial activity against multidrug resistant Klebsiella pneumoniae isolate 16 by broth dilution method in presence of 26.3 mg/L efflux pump inhibitor phenylalanine-arginine-beta-naphthylamide

Measured: MIC

C[C@@H]1CN(c2c(F)c(N)c3c(=O)c(C(=O)O)cn(C4CC4)c3c2F)C[C@H](C)N1 [SPARFLOXACIN]
128 µg/mL: Klebsiella aerogenes [5] | Klebsiella aerogenes [15] | Klebsiella aerogenes [17] | Klebsiella aerogenes [30] | Klebsiella aerogenes [33] | Klebsiella aerogenes [39]
16 µg/mL: Klebsiella aerogenes [2] | Klebsiella aerogenes [20] | Klebsiella aerogenes [27] | Klebsiella aerogenes [40]
2 µg/mL: Klebsiella pneumoniae [6] | Klebsiella pneumoniae [29]
8 µg/mL: Klebsiella aerogenes [1] | Klebsiella aerogenes [4] | Klebsiella aerogenes [25] | Klebsiella pneumoniae [26] | Klebsiella aerogenes [31] | Klebsiella pneumoniae [34]
256 µg/mL: Klebsiella aerogenes [11] | Klebsiella aerogenes [13] | Klebsiella aerogenes [18]
0.5 µg/mL: Klebsiella pneumoniae [28]
32 µg/mL: Klebsiella aerogenes [35] | Klebsiella pneumoniae [36]
4 µg/mL: Klebsiella aerogenes [3] | Klebsiella aerogenes [7]
512 µg/mL: Klebsiella aerogenes [12] | Klebsiella aerogenes [19]
0.25 µg/mL: Klebsiella pneumoniae [16]
0.125 µg/mL: Klebsiella pneumoniae [23] | Klebsiella aerogenes [24]
64 µg/mL: Klebsiella aerogenes [37]
≤ 0.06 µg/mL: all other assays above

O=C(N[C@H](CO)[C@H](O)c1ccc([N+](=O)[O-])cc1)C(Cl)Cl [CHLORAMPHENICOL]
256 µg/mL: Klebsiella aerogenes [17] | Klebsiella aerogenes [24] | Klebsiella aerogenes [35] | Klebsiella aerogenes [37]
512 µg/mL: Klebsiella aerogenes [5] | Klebsiella aerogenes [33]
128 µg/mL: Klebsiella aerogenes [7] | Klebsiella aerogenes [20] | Klebsiella aerogenes [25] | Klebsiella aerogenes [31]
8 µg/mL: Klebsiella pneumoniae [32] | Klebsiella pneumoniae [36]
32 µg/mL: Klebsiella aerogenes [3] | Klebsiella pneumoniae [16] | Klebsiella pneumoniae [22] | Klebsiella aerogenes [39]
> 1020 µg/mL: Klebsiella aerogenes [19]
2 µg/mL: Klebsiella pneumoniae [6] | Klebsiella pneumoniae [8] | Klebsiella pneumoniae [26] | Klebsiella pneumoniae [29] | Klebsiella pneumoniae [38]
1020 µg/mL: Klebsiella aerogenes [11] | Klebsiella aerogenes [12] | Klebsiella aerogenes [13] | Klebsiella aerogenes [15] | Klebsiella aerogenes [18] | Klebsiella aerogenes [30]
4 µg/mL: Klebsiella aerogenes [14] | Klebsiella pneumoniae [21] | Klebsiella pneumoniae [28] | Klebsiella pneumoniae [34] | Klebsiella pneumoniae [41]
not listed: Klebsiella pneumoniae [23]
64 µg/mL: all other assays above
